Laboratory results reported in patent publication US5041567A, “Antibacterial monic acid derivatives” (Beecham Group plc, priority 1982, dated 1991).
Converted amounts (≈) assume the structure as drawn. Read-outs that look alike come from different tables or passages of the source.

Columns and labels:
M. pneumoniae ATCC 15492 = assay: MIC against mycoplasma in vitro; type: cell-based; conditions: Mycoplasmoides pneumoniae, ATCC15492, 144 h; M. pneumoniae ATCC 15492; 6 days, 37° C.; read-out: MIC
Past. multocida PA1 = assay: MIC against veterinary bacteria in vitro; conditions: Pasteurella multocida, PA1, 18 h
Description: (§1) The activity of the compounds of the Examples against various veterinarily important bacteria, was assayed in vitro using two-fold serial dilutions in Diagnostic Sensitivity Test Agar inoculated with 10^4 organisms.

[1] = tested on: M. suipneumoniae NCTC 10110; assay: MIC against mycoplasma in vitro; type: cell-based; conditions: Mesomycoplasma hyopneumoniae, NCTC10110, 144 h; M. suipneumoniae NCTC 10110; 6 days, 37° C.; read-out: MIC
[2] = tested on: M. hyosynoviae ATCC 25591; assay: MIC against mycoplasma in vitro; type: cell-based; conditions: 144 h
M. suipneumoniae HK(2) = assay: MIC against mycoplasma in vitro; type: cell-based; conditions: Mesomycoplasma hyopneumoniae, 144 h; M. suipneumoniae HK(2); 6 days, 37° C.; read-out: MIC
Strep. agalactiae 2788-B = assay: MIC against human bacteria in vitro; type: cell-based; conditions: Streptococcus agalactiae; Strep. agalactiae 2788-B; 5% chocolated horse blood agar, 18 hours; read-out: MIC
[3] = tested on: Pasteurella multocida 1633; assay: MIC against human bacteria in vitro; type: cell-based; conditions: Pasteurella multocida 1633; 5% chocolated horse blood agar, 18 hours; read-out: MIC
Sarcina lutea 8340 = assay: MIC against human bacteria in vitro; type: cell-based; conditions: Micrococcus luteus; Sarcina lutea 8340; 5% chocolated horse blood agar, 18 hours; read-out: MIC
[4] = tested on: Strep. suis (group D) SPS11; assay: MIC against veterinary bacteria in vitro; conditions: Streptococcus suis, 18 h
Description: as §1

M. hyorhinis ATCC 25021 = assay: MIC against mycoplasma in vitro; type: cell-based; conditions: Mesomycoplasma hyorhinis, ATCC25021, 144 h
S. dublin S7 = assay: MIC against veterinary bacteria in vitro; conditions: Salmonella enterica, S7, 18 h
Description: as §1

[5] = tested on: M. suipneumoniae ATCC 25095; assay: MIC against mycoplasma in vitro; type: cell-based; conditions: Mesomycoplasma hyopneumoniae, ATCC25095, 144 h
E. coli ESS = assay: MIC against human bacteria in vitro; type: cell-based; conditions: Escherichia coli; E. coli ESS; 5% chocolated horse blood agar, 18 hours; read-out: MIC
Strep. pneumoniae CN33 = assay: MIC against human bacteria in vitro; type: cell-based; conditions: Streptococcus pneumoniae; Strep. pneumoniae CN33; 5% chocolated horse blood agar, 18 hours; read-out: MIC
[6] = tested on: Corynebacterium xerosis 9755; assay: MIC against human bacteria in vitro; type: cell-based; conditions: Corynebacterium xerosis 9755; 5% chocolated horse blood agar, 18 hours; read-out: MIC
Staph. aureus Oxford [7] = assay: MIC against veterinary bacteria in vitro; conditions: Staphylococcus aureus, 18 h
Description: as §1

M. dispar NCTC 10125 = assay: MIC against mycoplasma in vitro; type: cell-based; conditions: 144 h; M. dispar NCTC 10125; 6 days, 37° C.; read-out: MIC
[8] = tested on: M. suipneumoniae PW/C/210; assay: MIC against mycoplasma in vitro; type: cell-based; conditions: Mesomycoplasma hyopneumoniae, 144 h
Past. multocida PA2 = assay: MIC against veterinary bacteria in vitro; conditions: Pasteurella multocida, PA2, 18 h
Description: as §1

Bacillus subtilis 6633 = assay: MIC against human bacteria in vitro; type: cell-based; conditions: Bacillus subtilis 6633; 5% chocolated horse blood agar, 18 hours; read-out: MIC
Staph. aureus W2827 = assay: MIC against human bacteria in vitro; type: cell-based; conditions: Staphylococcus aureus; Staph. aureus W2827; 5% chocolated horse blood agar, 18 hours; read-out: MIC
[9] = tested on: Staph. aureus B4 (pen. resistant); assay: MIC against veterinary bacteria in vitro; conditions: Staphylococcus aureus, 18 h
Description: as §1

[10] = tested on: Haemophilus influenzae Wy21; assay: MIC against human bacteria in vitro; type: cell-based; conditions: Haemophilus influenzae Wy21; 5% chocolated horse blood agar, 18 hours; read-out: MIC
M. hyorhinis ATCC 23234 = assay: MIC against mycoplasma in vitro; type: cell-based; conditions: Mesomycoplasma hyorhinis, ATCC23234, 144 h
M. suipneumoniae JF 435 = assay: MIC against mycoplasma in vitro; type: cell-based; conditions: Mesomycoplasma hyopneumoniae, JF435, 144 h; M. suipneumoniae JF 435; 6 days, 37° C.; read-out: MIC
Staph. aureus Russell = assay: MIC against human bacteria in vitro; type: cell-based; conditions: Staphylococcus aureus; Staph. aureus Russell; 5% chocolated horse blood agar, 18 hours; read-out: MIC
Bord. bronchiseptica B08 = assay: MIC against veterinary bacteria in vitro; conditions: Bordetella bronchiseptica, B08, 18 h
Description: as §1

[11] = tested on: Erysipelothrix rhusiopathiae NCTC 8163; assay: MIC against veterinary bacteria in vitro; conditions: Erysipelothrix rhusiopathiae, NCTC8163, 18 h
Description: as §1

Past. haemolytica PA5 = assay: MIC against veterinary bacteria in vitro; conditions: Mannheimia haemolytica, PA5, 18 h
Description: as §1

M. suipneumoniae UCD 1 = assay: MIC against mycoplasma in vitro; type: cell-based; conditions: Mesomycoplasma hyopneumoniae, UCD1, 144 h; M. suipneumoniae UCD 1; 6 days, 37° C.; read-out: MIC
[12] = tested on: Corynebacterium pyogenes CY1; assay: MIC against veterinary bacteria in vitro; conditions: CY1, 18 h
Description: as §1

Strep. agalactiae SPA1 = assay: MIC against veterinary bacteria in vitro; conditions: Streptococcus agalactiae, SPA1, 18 h
Description: as §1

Staph. aureus Oxford [13] = assay: MIC against human bacteria in vitro; type: cell-based; conditions: Staphylococcus aureus; Staph. aureus Oxford; 5% chocolated horse blood agar, 18 hours; read-out: MIC
M. suipneumoniae LABER = assay: MIC against mycoplasma in vitro; type: cell-based; conditions: Mesomycoplasma hyopneumoniae, 144 h
[14] = tested on: M. suipneumoniae J2206/183^b; assay: MIC against mycoplasma in vitro; type: cell-based; conditions: Mesomycoplasma hyopneumoniae, 144 h; M. suipneumoniae J2206/183^b; 6 days, 37° C.; read-out: MIC

| SMILES | MIC (M. pneumoniae ATCC 15492) [µg/mL] | MIC (Past. multocida PA1) [µg/mL] | MIC [1] [µg/mL] | MIC (M. suipneumoniae HK(2)) [µg/mL] | MIC (Strep. agalactiae 2788-B) [µg/mL] | MIC [3] [µg/mL] | MIC (Sarcina lutea 8340) [µg/mL] | MIC [4] [µg/mL] | MIC (S. dublin S7) [µg/mL] | MIC (E. coli ESS) [µg/mL] | MIC (Strep. pneumoniae CN33) [µg/mL] | MIC [6] [µg/mL] | MIC (Staph. aureus Oxford [7]) [µg/mL] | MIC (M. dispar NCTC 10125) [µg/mL] | MIC (Past. multocida PA2) [µg/mL] | MIC (Bacillus subtilis 6633) [µg/mL] | MIC (Staph. aureus W2827) [µg/mL] | MIC [9] [µg/mL] | MIC [10] [µg/mL] | MIC (M. suipneumoniae JF 435) [µg/mL] | further results |
| --- | --- | --- | --- | --- | --- | --- | --- | --- | --- | --- | --- | --- | --- | --- | --- | --- | --- | --- | --- | --- | --- |
| C/C(=C\c1ncc(-c2ccccc2)o1)C[C@@H]1OC[C@H](C[C@@H]2O[C@H]2[C@@H](C)[C@H](C)O)[C@@H](O)[C@H]1O [Example 1, 2-(1-normon-2-yl)-5-phenyloxazole A] | 2.5 (≈ 5.64 µM) | 10 (≈ 22.5 µM) | 1 (≈ 2.25 µM) | 1 (≈ 2.25 µM) | 5 (≈ 11.3 µM) | 10 (≈ 22.5 µM) | ≥ 100 | 20 (≈ 45.1 µM) | > 80 | 10 (≈ 22.5 µM) | 2.5 (≈ 5.64 µM) | > 100 | 1.25 (≈ 2.82 µM) | 0.1 (≈ 0.225 µM) | 1.25 (≈ 2.82 µM) | 2.5 (≈ 5.64 µM) | 5 (≈ 11.3 µM) | 1.25 (≈ 2.82 µM) | 1 (≈ 2.25 µM) | 1 (≈ 2.25 µM) | MIC [2]: 0.5 µg/mL (≈ 1.13 µM); MIC (M. hyorhinis ATCC 25021): 0.5 µg/mL (≈ 1.13 µM); MIC [5]: 0.5 µg/mL (≈ 1.13 µM); MIC [8]: 0.5 µg/mL (≈ 1.13 µM); MIC (M. hyorhinis ATCC 23234): 0.5 µg/mL (≈ 1.13 µM); MIC (Staph. aureus Russell): 5 µg/mL (≈ 11.3 µM); MIC (Bord. bronchiseptica B08): 80 µg/mL (≈ 180 µM); MIC [11]: 80 µg/mL (≈ 180 µM); MIC (Past. haemolytica PA5): 80 µg/mL (≈ 180 µM); MIC (M. suipneumoniae UCD 1): 1 µg/mL (≈ 2.25 µM); MIC [12]: 80 µg/mL (≈ 180 µM); MIC (Strep. agalactiae SPA1): 1.25 µg/mL (≈ 2.82 µM); MIC (Staph. aureus Oxford [13]): 5 µg/mL (≈ 11.3 µM); MIC (M. suipneumoniae LABER): 0.5 µg/mL (≈ 1.13 µM); MIC [14]: 1 µg/mL (≈ 2.25 µM) |
| C/C(=C\c1ncc(-c2ccc([N+](=O)[O-])cc2)o1)C[C@@H]1OC[C@H](C[C@@H]2O[C@H]2[C@@H](C)[C@H](C)O)[C@@H](O)[C@H]1O [Example 3, 5-p-nitro-phenyl-2-(1-normon-2-yl)-oxazole A] | 0.5 (≈ 1.02 µM) | 5 (≈ 10.2 µM) | 0.25 (≈ 0.512 µM) | 0.25 (≈ 0.512 µM) | 0.5 (≈ 1.02 µM) | 0.5 (≈ 1.02 µM) | > 100 | 2.5 (≈ 5.12 µM) | > 80 | 0.5 (≈ 1.02 µM) | 0.5 (≈ 1.02 µM) | > 100 | 0.312 (≈ 0.639 µM) | 0.05 (≈ 0.102 µM) | 0.625 (≈ 1.28 µM) | 0.5 (≈ 1.02 µM) | 1 (≈ 2.05 µM) | 0.312 (≈ 0.639 µM) | 0.1 (≈ 0.205 µM) | 0.25 (≈ 0.512 µM) | MIC ([2]; M. hyosynoviae ATCC 25591, 6 days, 37° C., read-out: MIC): 0.25 µg/mL (≈ 0.512 µM); MIC (M. hyorhinis ATCC 25021; M. hyorhinis ATCC 25021, 6 days, 37° C., read-out: MIC): 0.05 µg/mL (≈ 0.102 µM); MIC ([5]; M. suipneumoniae ATCC 25095, 6 days, 37° C., read-out: MIC): 0.1 µg/mL (≈ 0.205 µM); MIC ([8]; M. suipneumoniae PW/C/210, 6 days, 37° C., read-out: MIC): 0.1 µg/mL (≈ 0.205 µM); MIC (M. hyorhinis ATCC 23234; M. hyorhinis ATCC 23234, 6 days, 37° C., read-out: MIC): 0.1 µg/mL (≈ 0.205 µM); MIC (Staph. aureus Russell): 5 µg/mL (≈ 10.2 µM); MIC (Bord. bronchiseptica B08): 40 µg/mL (≈ 81.9 µM); MIC [11]: > 80 µg/mL; MIC (Past. haemolytica PA5): 10 µg/mL (≈ 20.5 µM); MIC (M. suipneumoniae UCD 1): 0.25 µg/mL (≈ 0.512 µM); MIC [12]: 80 µg/mL (≈ 164 µM); MIC (Strep. agalactiae SPA1): 1.25 µg/mL (≈ 2.56 µM); MIC (Staph. aureus Oxford [13]): 0.2 µg/mL (≈ 0.409 µM); MIC (M. suipneumoniae LABER; M. suipneumoniae LABER, 6 days, 37° C., read-out: MIC): 0.1 µg/mL (≈ 0.205 µM); MIC [14]: 0.25 µg/mL (≈ 0.512 µM) |
